Calls of active or inactive are those of the source. The rule behind the calls is not given here.
Tests used:
Neutrophil elastase [1] = molecular target: T1, Neutrophil elastase (Mus musculus, UniProt Q3UP87); assay: Inhibition of recombinant mouse neutrophil elastase using methoxysuccinyl-Ala-Ala-Pro-Val-pnitroanilide as substrate preincubated for 15 mins before substrate addition measured after 90 mins by spectrophotometry
T1 sequence (Q3UP87 whole entry): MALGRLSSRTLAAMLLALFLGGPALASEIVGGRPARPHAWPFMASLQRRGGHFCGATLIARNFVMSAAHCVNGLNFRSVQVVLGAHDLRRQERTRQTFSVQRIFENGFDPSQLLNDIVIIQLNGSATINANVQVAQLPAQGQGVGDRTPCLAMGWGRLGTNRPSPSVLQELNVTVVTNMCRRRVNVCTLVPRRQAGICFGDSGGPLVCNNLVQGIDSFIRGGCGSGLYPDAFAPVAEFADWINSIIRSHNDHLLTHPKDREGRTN

Cathepsin G = molecular target: T2, Cathepsin G (Homo sapiens, UniProt P08311); assay: Inhibition of human cathepsin G using N-succinyl-Ala-Ala-Pro-Phe-p-nitroanilide as substrate measured for 180 mins by spectrophotometry
T2 sequence (P08311 whole entry): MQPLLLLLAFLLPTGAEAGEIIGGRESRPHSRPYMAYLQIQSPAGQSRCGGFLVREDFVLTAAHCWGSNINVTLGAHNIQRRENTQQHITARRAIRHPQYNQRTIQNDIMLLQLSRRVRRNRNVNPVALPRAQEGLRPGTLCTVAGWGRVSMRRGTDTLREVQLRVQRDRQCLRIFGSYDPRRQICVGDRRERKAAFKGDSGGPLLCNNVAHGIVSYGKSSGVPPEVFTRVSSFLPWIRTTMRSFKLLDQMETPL

Mus musculus [2] = assay: Protection from LPS-induced acute lung injury in C57BL/6 mouse assessed as inhibition of LPS-induced leukocyte infiltration treated 1 hr prior LPS challenge at 100 mg/kg, ip measured 6 hrs post LPS injection by hematoxylin and eosin staining method
Mus musculus [3] = assay: Protection from LPS-induced acute lung injury in C57BL/6 mouse assessed as inhibition of leukocyte infiltration in lung treated 1 hr prior challenge at 100 mg/kg, ip
Mus musculus [4] = assay: Protection from LPS-induced acute lung injury in C57BL/6 mouse assessed as inhibition of MPO activity in lung tissue treated 1 hr prior challenge at 100 mg/kg, ip
Mus musculus [5] = assay: Protection from LPS-induced acute lung injury in C57BL/6 mouse assessed as inhibition of LPS-induced lung tissue destruction treated 1 hr prior LPS challenge at 100 mg/kg, ip measured 6 hrs post LPS injection by hematoxylin and eosin staining method
Myeloblastin = molecular target: T3, Myeloblastin (Homo sapiens, UniProt P24158); assay: Inhibition of Pr3 (unknown origin) using t-butyloxycarbonyl-Ala-Ala-Nva-thiobenzyl ester as substrate measured for 180 mins by spectrophotometry
T3 sequence (P24158 whole entry): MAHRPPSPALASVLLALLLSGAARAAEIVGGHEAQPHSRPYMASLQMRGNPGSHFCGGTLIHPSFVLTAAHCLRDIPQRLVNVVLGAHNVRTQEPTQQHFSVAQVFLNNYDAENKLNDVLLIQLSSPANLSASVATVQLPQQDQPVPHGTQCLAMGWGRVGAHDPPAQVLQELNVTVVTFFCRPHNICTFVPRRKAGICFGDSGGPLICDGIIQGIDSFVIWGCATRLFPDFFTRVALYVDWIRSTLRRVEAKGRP

[6] = Inhibition of bovine pancreatic trypsin using Nalpha-benzoyl-L-arginine-7-amido-4-methylcoumarin; parameters: species or system Bos taurus
Mus musculus [7] = assay: Protection from LPS-induced acute lung injury in C57BL/6 mouse assessed as inhibition of LPS-induced alveolar thickening treated 1 hr prior LPS challenge at 100 mg/kg, ip measured 6 hrs post LPS injection by hematoxylin and eosin staining method
Mus musculus [8] = assay: Protection from LPS-induced acute lung injury in C57BL/6 mouse assessed as inhibition of LPS-induced diffuse edematous changes treated 1 hr prior LPS challenge at 100 mg/kg, ip measured 6 hrs post LPS injection by hematoxylin and eosin staining method
Pancreatic elastase = Pancreatic elastase (Sus scrofa, UniProt P08419+P00772); assay: Inhibition of porcine pancreatic elastase using methoxysuccinyl-Ala-Ala-Pro-Val-p-nitroanilide as substrate preincubated for 15 mins before substrate addition measured after 60 mins by spectrophotometry; format: protein assay
Neutrophil [9] = assay: cells; details: Homo sapiens
Mus musculus [10] = assay: Antiinflammatory activity in C57BL/6 mouse assessed as inhibition of human neutrophil elastase-induced edema compound treated 1 hr prior challenge at 100 mg/kg, ip measured up to 240 mins; format: functional, organism-based; parameters: dose 100 mg/kg
[11] = Inhibition of bovine pancreas chymotrypsin using N-succinyl-Ala-Ala-Pro-Phe-7-amido-4-methylcoumarin by spectrophotometry; parameters: species or system Bos taurus
Mus musculus [12] = assay: Antiinflammatory activity in C57BL/6 mouse assessed as inhibition of LPS-induced edema compound treated 1 hr prior challenge at 100 mg/kg, ip measured up to 240 mins; format: functional, organism-based; parameters: dose 100 mg/kg
Prothrombin = Prothrombin (Bos taurus, UniProt P00735); assay: Inhibition of bovine plasma thrombin using Benzoyl-Phe-Val-Arg-7-amido-4-methylcoumarin hydrochloride by spectrophotometry
Neutrophil elastase [13] = molecular target: T4, Neutrophil elastase (Homo sapiens, UniProt P08246); assay: Inhibition of human neutrophil elastase measured for 30 mins by spectrophotometry
T4 sequence (P08246 whole entry): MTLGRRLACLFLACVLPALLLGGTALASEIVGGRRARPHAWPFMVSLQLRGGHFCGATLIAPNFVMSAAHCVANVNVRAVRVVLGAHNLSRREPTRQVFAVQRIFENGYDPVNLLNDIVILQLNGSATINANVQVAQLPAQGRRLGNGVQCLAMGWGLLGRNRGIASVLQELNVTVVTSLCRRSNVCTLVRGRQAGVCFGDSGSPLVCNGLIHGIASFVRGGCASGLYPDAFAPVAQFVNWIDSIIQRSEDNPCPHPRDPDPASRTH

Neutrophil [14] = assay: cells; details: Homo sapiens; remark: listed apart in the source
Mus musculus [15] = assay: Toxicity in C57BL/6 mouse assessed as effect on pulmonary alveoli at 100 mg/kg, ip by hematoxylin and eosin staining method; format: organism-based; parameters: dose 100 mg/kg, route intraperitoneal; details: in vivo
Mus musculus [16] = assay: Toxicity in C57BL/6 mouse assessed as effect on lung structure at 100 mg/kg, ip by hematoxylin and eosin staining method; format: organism-based; parameters: dose 100 mg/kg, route intraperitoneal; details: in vivo
Mus musculus [17] = assay: Antiinflammatory activity in C57BL/6 mouse assessed as inhibition of human neutrophil elastase-induced edema compound treated ip 1 hr prior challenge measured up to 240 mins post dose; format: functional, organism-based
Mus musculus [18] = assay: Antiinflammatory activity in C57BL/6 mouse assessed as inhibition of human neutrophil elastase-induced edema compound treated 1 hr prior challenge at 50 to 100 mg/kg, ip; format: functional, organism-based; details: TDE = time-dependent effect

Structure (SMILES) | IC50 (Cathepsin G) [µM] | IC50 (Neutrophil [9]) [µM] | IC50 (Neutrophil elastase [13]) [µM] | IC50 (Neutrophil [14]) [µM] | other results
CC(C)(C)C(=O)Oc1ccc(S(=O)(=O)Nc2ccccc2C(=O)NCCO)cc1 | > 10 | > 20 | 0.13 | 0.05 | –
CC(C)(C)C(=O)Oc1ccc(S(=O)(=O)Nc2ccccc2C=O)cc1 | > 10 | > 20 | 0.12 | 0.05 | –
CCCCC(=O)c1ccccc1NS(=O)(=O)c1ccc(OC(=O)C(C)(C)C)cc1 | > 10 | > 20 | 2.24 | 0.11 | –
C/C(=N/O)c1ccccc1NS(=O)(=O)c1ccc(OC(=O)C(C)(C)C)cc1 | > 10 | 19.6 | – | – | IC50 (Neutrophil elastase [1]): 0.191 µM; Activity (Mus musculus [15]): Non-toxic; inhibition (Mus musculus [2]): Active; inhibition (Mus musculus [3]): Active; inhibition (Mus musculus [4]): Active; inhibition (Mus musculus [5]): Active; Activity (Mus musculus [16]): Non-toxic; inhibition (Mus musculus [17]): Dose-dependent effect; IC50 [6]: > 10 µM; inhibition (Mus musculus [7]): Active; inhibition (Mus musculus [18]): tde; inhibition (Mus musculus [8]): Active; IC50 (Pancreatic elastase): 1.88198 µM; IC50 [11]: 0.594 µM; inhibition (Mus musculus [12]): Active; IC50 (Prothrombin): > 10 µM
CCC/C(=N/O)c1ccccc1NS(=O)(=O)c1ccc(OC(=O)C(C)(C)C)cc1 | > 10 | > 20 | – | – | –
COC(=O)c1ccccc1NC(=O)c1ccc(OC(=O)C(C)(C)C(F)(F)F)cc1 | > 10 | > 20 | > 10 | > 20 | IC50 (Myeloblastin): > 10 µM
CCCOC(=O)c1ccccc1NC(=O)c1ccc(OC(=O)C(C)(C)C)cc1 | > 10 | > 20 | 1.23 | 0.62 | –
CC(C)(C)C(=O)Oc1ccc(S(=O)(=O)Nc2ccccc2C(=O)OCCO)cc1 | > 10 | > 20 | 0.29 | 0.05 | –
CCCC(=O)c1ccccc1NS(=O)(=O)c1ccc(OC(=O)C(C)(C)C)cc1 | > 10 | > 20 | 0.37 | – | –
CCC(=O)c1ccccc1NS(=O)(=O)c1ccc(OC(=O)C(C)(C)C)cc1 | > 10 | > 20 | 0.19 | – | –
COC(=O)c1ccccc1NS(=O)(=O)c1ccc(NC(=O)C(C)(C)C)cc1 | > 10 | > 20 | > 10 | 13.6 | IC50 (Myeloblastin): > 10 µM
COC(=O)c1ccccc1NS(=O)(=O)c1ccc(OC(=O)C(C)(C)C(F)(F)F)cc1 | > 10 | – | – | 4.94 | –

Now from value to molecule, other results behind:

IC50 (Cathepsin G) [µM] | IC50 (Neutrophil [9]) [µM] | IC50 (Neutrophil elastase [13]) [µM] | IC50 (Neutrophil [14]) [µM] | Structure (SMILES) | other results
> 10 | > 20 | – | – | CC(C)(C)C(=O)Oc1ccc(S(=O)(=O)Nc2ccccc2C(=O)NCC(=O)O)cc1 | IC50 (Neutrophil elastase [1]): 0.145 µM; inhibition (Mus musculus [2]): Active; inhibition (Mus musculus [3]): Active; inhibition (Mus musculus [4]): Active; inhibition (Mus musculus [5]): Active; IC50 (Myeloblastin): 0.34 µM; IC50 [6]: > 10 µM; inhibition (Mus musculus [7]): Active; inhibition (Mus musculus [8]): Active; IC50 (Pancreatic elastase): 2.18517 µM; inhibition (Mus musculus [10]): Active; IC50 [11]: 1.95 µM; inhibition (Mus musculus [12]): Active; IC50 (Prothrombin): > 10 µM
> 10 | > 20 | – | – | CO/N=C(/C)c1ccccc1NS(=O)(=O)c1ccc(OC(=O)C(C)(C)C)cc1 | –
> 10 | > 20 | > 10 | 13.8 | CCOC(=O)c1ccccc1NC(=O)c1ccc(OC(=O)C(C)(C)C(F)(F)F)cc1 | IC50 (Myeloblastin): > 10 µM
> 10 | 13.4 | – | – | CC/C(=N/O)c1ccccc1NS(=O)(=O)c1ccc(OC(=O)C(C)(C)C)cc1 | –
> 10 | > 20 | 0.11 | 0.09 | CC(=O)c1ccccc1NS(=O)(=O)c1ccc(OC(=O)C(C)(C)C)cc1 | –
> 10 | > 20 | 0.48 | 0.3 | CCOC(=O)c1ccccc1NC(=O)c1ccc(OC(=O)C(C)(C)C)cc1 | –
> 10 | > 20 | 0.82 | 0.55 | COC(=O)c1ccccc1NC(=O)c1ccc(OC(=O)C(C)(C)C)cc1 | –
> 10 | > 20 | – | – | CC(C)(C)C(=O)Oc1ccc(S(=O)(=O)Nc2ccccc2/C=N\O)cc1 | –
> 10 | > 20 | > 10 | > 20 | CCCOC(=O)c1ccccc1NC(=O)c1ccc(OC(=O)C(C)(C)C(F)(F)F)cc1 | IC50 (Myeloblastin): > 10 µM
> 10 | > 20 | > 10 | 9.41 | CC(C)(C)[S+]([O-])Nc1ccc(S(=O)(=O)Nc2ccccc2C=O)cc1 (centres undefined) | IC50 (Myeloblastin): > 10 µM
> 10 | > 20 | – | – | CO/N=C(\C)c1ccccc1NS(=O)(=O)c1ccc(OC(=O)C(C)(C)C)cc1 | –

From ChEMBL document CHEMBL3396960, “Synthesis and pharmacological characterization of 2-aminobenzaldehyde oxime analogs as dual inhibitors of neutrophil elastase and proteinase 3” (Bioorg Med Chem, 2015)
